In test [1] the test system is ETBR. Put plainly: Plasma ET-1 ELISA after IV infusion, indirect measure of ETBR engagement. It counts as in vivo. The settings on record: rats, 250 μg/kg IV infusion. How it is done:
Briefly, rats (N=4 animals per timepoint) were administered either BQ-788 or the deuterated form, BQ-788-B at a dose of 250 μg/kg via IV infusion. Plasma samples were collected at various time points and ET-1 ELISA performed. BQ788 and BQ788-B are peptide drugs that are rapidly degraded in plasma and thus drug levels are difficult to detect directly. […] As such, plasma levels of ET-1 are commonly used as an indirect measure of BQ-788 biologic activity.
A general note: In an ELISA, binding on a coated surface is turned into a signal by an enzyme label.

Test [2] deals with T1, ETB (h) (Homo sapiens, UniProt P24530).
T1 sequence (P24530 27-442): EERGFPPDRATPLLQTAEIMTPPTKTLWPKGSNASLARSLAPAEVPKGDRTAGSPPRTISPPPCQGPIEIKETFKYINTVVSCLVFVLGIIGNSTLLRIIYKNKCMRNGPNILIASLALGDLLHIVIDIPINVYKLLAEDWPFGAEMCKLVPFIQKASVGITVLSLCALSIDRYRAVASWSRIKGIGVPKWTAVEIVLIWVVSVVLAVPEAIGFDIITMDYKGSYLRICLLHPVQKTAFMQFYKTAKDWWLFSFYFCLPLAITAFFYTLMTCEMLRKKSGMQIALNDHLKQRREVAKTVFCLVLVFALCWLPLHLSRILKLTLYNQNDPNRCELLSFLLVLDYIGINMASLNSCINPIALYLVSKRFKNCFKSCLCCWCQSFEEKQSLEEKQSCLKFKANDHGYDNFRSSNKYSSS
Put plainly: ETB (h) cellular antagonist effect. The class given is cell-based. The procedure: Cellular agonist effect was calculated as a % of control response to a known reference agonist for ETB (h), and cellular antagonist effect was calculated as a % inhibition of control reference agonist response for ETB.
Determination of ETBR inhibitory effect for specifically deuterated ETRB antagonists. […] Cellular agonist effect was calculated as a % of control response to a known reference agonist for ETB (h), and cellular antagonist effect was calculated as a % inhibition of control reference agonist response for ETB.

Test [3] concerns the target T2, CXCR4 (h) (Homo sapiens, UniProt P61073).
T2 construct: expressed in transfected cells; host or cells: CHO cells
Put plainly: CXCR4 (h) cellular antagonist effect, impedance by dielectric spectroscopy, stimulated with 1 nM SDF-1α. It counts as cell-based. The note with it: recombinant human CXCR4 in CHO cells, 28° C. The procedure: FIGS. 4A and 4B show determination of CXCR4 (h) inhibitory effect for, A) BQ-788 and B) BQ-788-B, a specifically deuterated ETRB antagonist (i.e., “Compound 1”). Cellular agonist effect was calculated as a % of control response to a known reference agonist for CXCR4 (h), and cellular antagonist effect was calculated as a % inhibition of control reference agonist response for CXCR4.
Determination of CXCR4 inhibitory effect. The inhibitory effect on CXCR4 (h) was determined for BQ-788 (FIG. 4A), and BQ-788 (FIG. 4B) BQ-788-B (i.e., “Compound 1”). Cellular agonist effect was calculated as a % of control response to a known reference agonist for CXCR4 (h), and cellular antagonist effect was calculated as a % inhibition of control reference agonist response for CXCR4. Recombinant human CXCR4 was expressed in CHO cells, and stimulated with 1 nM SDF-1α and incubated at 28° C. Dielectric spectroscopy was used to measure impedance of the cells.

The target of test [4] is T3, ETA (h) (Homo sapiens, UniProt P25101).
T3 sequence (P25101 21-427): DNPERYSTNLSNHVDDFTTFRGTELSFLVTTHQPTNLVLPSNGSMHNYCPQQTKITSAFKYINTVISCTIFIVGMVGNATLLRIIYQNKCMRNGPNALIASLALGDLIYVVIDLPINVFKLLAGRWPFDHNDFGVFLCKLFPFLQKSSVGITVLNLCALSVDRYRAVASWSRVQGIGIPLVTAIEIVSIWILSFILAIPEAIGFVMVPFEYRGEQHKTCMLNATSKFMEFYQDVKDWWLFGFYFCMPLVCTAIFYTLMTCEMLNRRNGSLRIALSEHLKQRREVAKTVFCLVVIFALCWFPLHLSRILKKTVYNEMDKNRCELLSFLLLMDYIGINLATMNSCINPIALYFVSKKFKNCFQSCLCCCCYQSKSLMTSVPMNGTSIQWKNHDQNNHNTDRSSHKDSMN
The experiment in a line: ETA (h) cellular antagonist effect. It counts as cell-based. How it is done: FIGS. 5A and 5B show determination of ETA (h) inhibitory effect for A) BQ-788 and B) BQ-788-B, a specifically deuterated ETRB antagonist. Cellular agonist effect was calculated as a % of control response to a known reference agonist for ETA (h), and cellular antagonist effect was calculated as a % inhibition of control reference agonist response for ETA.
Cellular agonist effect was calculated as a % of control response to a known reference agonist for ETA (h), and cellular antagonist effect was calculated as a % inhibition of control reference agonist response for ETA.

Structures are written as SMILES. “Also recorded” adds a separate entry of the source.

Data on two compounds can be found in patent US12077604B2, “Deuterated compounds, compositions, and methods for treating cancers associated with ETBR activation” (ENB Therapeutics Inc., priority 2018, dated 2024).

T2 sequence (P61073 whole entry): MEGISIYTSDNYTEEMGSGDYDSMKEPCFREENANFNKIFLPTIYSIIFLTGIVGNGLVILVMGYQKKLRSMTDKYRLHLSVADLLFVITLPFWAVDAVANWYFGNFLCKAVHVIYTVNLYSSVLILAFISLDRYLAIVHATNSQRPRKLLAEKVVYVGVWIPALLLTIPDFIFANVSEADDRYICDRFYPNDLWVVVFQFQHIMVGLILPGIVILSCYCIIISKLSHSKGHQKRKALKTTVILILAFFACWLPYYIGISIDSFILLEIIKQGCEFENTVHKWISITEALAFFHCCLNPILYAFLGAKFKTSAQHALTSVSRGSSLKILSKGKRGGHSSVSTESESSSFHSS

In general, IC50 refers to the midpoint of a concentration-inhibition curve. Take `[2H]C[C@@H]1CCC[C@H](C[2H])N1C(=O)N[C@@H](CC(C)(C)C)C(=O)N[C@H](Cc1cn(C(=O)OC)c2ccccc12)C(=O)N[C@H](CCCC)C(=O)O` [BQ-788-B]: the “plasma ET-1 response: prolonged peak out to” value in test [1] (ET-1 ELISA) is reported as “about 3 hours”. In addition, in test [1] (compared with non-deuterated BQ-788), the “biologic activity in vivo by plasma ET-1 (duration and amplitude of response)” value is “enhanced duration and amplitude of response relative to the undeuterated form; also recorded: enhanced biological activity relative to BQ-788”. The IC50 in test [2] (read-out: IC50, inhibition of control reference agonist response for ETB (h)) came to 96 nM. Moreover, the “IC50, inhibition of control reference agonist response for CXCR4 (h)” value in test [3] is on record as “not calculable”. For the same compound, the “IC50, inhibition of control reference agonist response for ETA (h)” value in test [4] was “not calculable”.

By Kd is commonly meant the concentration at which binding is half-saturated. `CCCC[C@@H](NC(=O)[C@@H](Cc1cn(C(=O)OC)c2ccccc12)NC(=O)[C@H](CC(C)(C)C)NC(=O)N1[C@H](C)CCC[C@@H]1C)C(=O)O` [BQ-788] had a Kd in test [2] of 13 nM. The IC50 in test [3] (read-out: IC50, inhibition of control reference agonist response for CXCR4 (h)) is over 1000 nM. Moreover, in test [4], the “IC50, inhibition of control reference agonist response for ETA (h)” value was “not calculable”.
